Reference: US6710080B2, “Substituted 2-dialkylaminoalkylbiphenyl derivatives” (Gruenenthal GmbH, priority 1999, dated 2004)
Structures can show the parent of a compound that is named as a salt.

Experiments:
[1] = tested on: phenylquinone-induced writhing in mice; assay: Writhing test in mice; assay type: in vivo; conditions: Mus musculus, male NMRI mice; for inhibition at 10 mg/kg: 10 mg/kg intravenously 10 minutes before phenylquinone i.p., writhing counted 5-20 minutes after phenylquinone, read-out: % Inhibition of the writhing reaction with 10 mg/kg intravenously; for ED50: iv, intravenously, regression analysis of dose-dependent decrease in writhing reactions
Protocol: The analgesic activity was investigated on phenylquinone-induced writhing in mice (modified by I. C. Hendershot, J. Forsaith, J. Pharmacol. Exp. Ther. 125, 237-240 (1959)). Male NMRI mice weighing 25-30 g were used for this. Groups of 10 animals per dose of substance received 0.3 ml/mouse of a 0.02% aqueous solution of phenylquinone (phenylbenzoquinone, Sigma, Deisenhofen; preparation of the solution with addition of 5% ethanol and storage in a water bath at 45° C.) as an intraperitoneal administration 10 minutes after intravenous administration of the test substances. The animals were placed individually in observation cages. The number of pain-induced extension movements (so-called writhing reactions=straightening of the body with stretching out of the hind extremities) 5-20 minutes after the administration of phenylquinone was counted by means of a push-button counter. Animals which receive only physiological saline solution were also run as a control. All the substances were tested in the standard dosage of 10 mg/kg. The percentage inhibition (% inhibition) of the writhing reaction by a substance was calculated in accordance with the following equation: [formula]
For some substances, the ED50 values with 95% confidence limits of the writhing reaction were calculated from the dose-dependent decrease in the writhing reactions compared with phenylquinone control groups investigated in parallel by means of regression analysis (evaluation program of Martens EDV Service, Eckental Germany).

| SMILES | inhibition at 10 mg/kg [1] | ED50 [1] | melting point |
| --- | --- | --- | --- |
| COc1cccc(-c2ccccc2CN(C)C)c1 [Example 1, (3′-Methoxybiphenyl-2-ylmethyl)dimethylamine hydrochloride] | 53% | – | – |
| CN(C)Cc1ccccc1-c1ccc(Cl)cc1.Cl [Example 2, (4′-Chlorobiphenyl-2-ylmethyl)dimethylamine hydrochloride] | 89% | 4.55 mg/kg | – |
| CN(C)Cc1ccccc1-c1cccc(O)c1.Cl [Example 3, 2′-Dimethylaminomethylbiphenyl-3-ol hydrochloride] | 100% | 0.24 mg/kg | – |
| COc1ccccc1-c1ccccc1CN(C)C.Cl [Example 4, (2′-Methoxybiphenyl-2-ylmethyl)dimethylamine hydrochloride] | 75% | 3.95 mg/kg | – |
| CN(C)Cc1ccccc1-c1cccc(Cl)c1.Cl [Example 5, (3′-Chlorobiphenyl-2-ylmethyl)dimethylamine hydrochloride] | 68% | 4.31 mg/kg | – |
| CN(C)Cc1ccccc1-c1ccccc1F.Cl [Example 6, (2′-Fluorobiphenyl-2-ylmethyl)dimethylamine hydrochloride] | 88% | 4.26 mg/kg | – |
| CN(C)Cc1ccccc1-c1cccc(F)c1.Cl [Example 7, (3′-Fluorobiphenyl-2-ylmethyl)dimethylamine hydrochloride] | 90% | 2.55 mg/kg | – |
| CN(C)Cc1ccccc1-c1ccc(F)cc1.Cl [Example 8, (4′-Fluorobiphenyl-2-ylmethyl)dimethylamine hydrochloride] | 67% | 7.15 mg/kg | – |
| CN(C)Cc1ccccc1-c1ccc(F)c(Cl)c1.Cl [Example 9, (3′-Chloro-4′-fluorobiphenyl-2-ylmethyl)dimethylamine hydrochloride] | 89% | 2.32 mg/kg | – |
| COc1cccc(-c2ccccc2CCN(C)C)c1.Cl [Example 10, (3′-Methoxybiphenyl-2-ylethyl)dimethylamine hydrochloride] | 100% | 1.7 mg/kg | – |
| Cc1cc2c(-c3ccccc3CN(C)C)cccc2o1 [Example 11, Dimethyl-[2-(2-methylbenzofuran-4-yl)benzyl]amine hydrochloride] | 74% | – | – |
| CN(C)Cc1ccccc1-c1ccccc1C=O.Cl [Example 12, 2′-Dimethylaminomethylbiphenyl-2-carbaldehyde hydrochloride] | 89% | 1.74 mg/kg | – |
| CN(C)Cc1ccccc1-c1cccc(C(F)F)c1.Cl [Example 13, (3′-Difluoromethylbiphenyl-2-ylmethyl)dimethylamine hydrochloride] | 81% | 5.3 mg/kg | – |
| CN(C)Cc1ccccc1-c1cccc(C=O)c1.Cl [Example 14, 2′-Dimethylaminomethylbiphenyl-3-carbaldehyde hydrochloride] | 100% | 2.28 mg/kg | – |
| CN(C)Cc1ccccc1-c1ccccc1.Cl [Example 15, biphenyl-2-ylmethyldimethylamine hydrochloride] | 52% | 3.66 mg/kg | – |
| CN(C)Cc1ccccc1-c1ccc(Cl)c(Cl)c1.Cl [Example 16, (3′,4′-Dichlorobiphenyl-2-ylmethyl)dimethylamine hydrochloride] | 89% | 4.59 mg/kg | – |
| CN(C)Cc1ccccc1-c1cc(Cl)cc(Cl)c1 [Example 17, (3′,5′-Dichlorobiphenyl-2-ylmethyl)dimethylamine hydrochloride] | 90% | – | – |
| CN(C)Cc1ccccc1-c1ccc([N+](=O)[O-])c(C(F)(F)F)c1 [Example 18, Dimethyl-(4′-nitro-3′-trifluoromethylbiphenyl-2-ylmethyl)amine hydrochloride] | 83% | – | – |
| CN(C)Cc1ccccc1-c1ccc(F)c(F)c1 [Example 19, (3′,4′-Difluorobiphenyl-2-ylmethyl)dimethylamine hydrochloride] | 86% | – | – |
| CN(C)Cc1ccccc1-c1ccc(F)c(C(F)(F)F)c1.Cl [Example 20, (4′-Fluoro-3′-trifluoromethylbiphenyl-2-ylmethyl)dimethyl-amine hydrochloride] | 83% | 4.99 mg/kg | – |
| COc1cc(-c2ccccc2CN(C)C)ccc1Cl.Cl [Example 21, (4′-Chloro-3′-methoxybiphenyl-2-ylmethyl)dimethylamine hydrochloride] | 53% | 6.78 mg/kg | – |
| CC(=O)Nc1ccc(-c2ccccc2CN(C)C)cc1OC(F)(F)F.Cl [Example 22, N-(2′-Dimethylaminomethyl-3-trifluoromethoxybiphenyl-4-yl)acetamide hydrochloride] | 76% | 6.05 mg/kg | 182 °C |

| SMILES | inhibition at 10 mg/kg [1] | ED50 [1] | melting point |
| --- | --- | --- | --- |
| CC(C)Oc1cccc(-c2ccccc2CN(C)C)c1 [Example 23, (3′-Isopropoxybiphenyl-2-ylmethyl)dimethylamine hydrochloride] | 97% | – | – |
| CN(C)CCc1ccccc1-c1cccc(O)c1.Cl [Example 24, 2′-(2-Dimethylaminoethyl)biphenyl-3-ol hydrochloride] | 99% | 2.27 mg/kg | – |
| CN(C)Cc1ccccc1-c1ccc(Cl)c(O)c1 [Example 25, 4-Chloro-2′-dimethylaminomethylbiphenyl-3-ol hydrochloride] | 74% | – | – |
| CN(C)Cc1ccccc1-c1ccc2[nH]ccc2c1 [Example 26, [2-(1H-Indol-5-yl)benzyl]dimethylamine] | 100% | 0.75 mg/kg | – |
| CN(C)Cc1ccccc1-c1ccc(S(C)(=O)=O)cc1 [Example 27, (4′-Methanesulfonylbiphenyl-2-ylmethyl)dimethylamine hydrochloride] | 89% | – | – |
| CN(C)Cc1ccccc1-c1ccc(Cl)cc1Cl [Example 28, (2′,4′-Dichlorobiphenyl-2-ylmethyl)dimethylamine hydrochloride] | 90% | – | – |
| CN(C)Cc1ccccc1-c1cccc(F)c1F.Cl [Example 29, (2′,3′-Difluorobiphenyl-2-ylmethyl)dimethylamine hydrochloride] | 83% | 5.71 mg/kg | – |
| CN(C)Cc1ccccc1-c1cc(F)ccc1F [Example 30, (2′,5′-Difluorobiphenyl-2-ylmethyl)dimethylamine hydrochloride] | 89% | – | – |
| CN(C)Cc1ccccc1-c1ccc2c(c1)OCO2 [Example 31, (2-Benzo [1,3]dioxol-5-ylbenzyl)dimethylamine hydrochloride] | 94% | – | – |
| CC(=O)c1cccc(-c2ccccc2CCN(C)C)c1 [Example 32, 1-[2′-(2-Dimethylaminoethyl)biphenyl-3-yl]ethanone hydrochloride] | 98% | – | – |
| COc1ccc(-c2ccccc2CCN(C)C)cc1OC [Example 33, [2-(3′,4′-Dimethoxybiphenyl-2-yl)ethyl]dimethylamine hydrochloride] | 89% | – | – |
| CC(C)Oc1cccc(-c2ccccc2CCN(C)C)c1 [Example 34, [2-(3′-Isopropoxybiphenyl-2-yl)ethyl]dimethylamine hydrochloride] | 80% | – | – |
| COc1cc(-c2ccccc2CCN(C)C)ccc1Cl [Example 35, [2-(4′-Chloro-3′-methoxybiphenyl-2-yl)ethyl]dimethylamine hydrochloride] | 88% | – | – |
| CN(C)CCc1ccccc1-c1ccc(Cl)c(O)c1 [Example 36, 4-Chloro-2′-(2-dimethylaminoethyl)biphenyl-3-ol hydrochloride] | 93% | – | – |
| CN(C)Cc1ccccc1-c1cccc([N+](=O)[O-])c1 [Example 37, Dimethyl-(3′-nitrobiphenyl-2-ylmethyl)amine hydrochloride] | 60% | – | – |
| CN(C)Cc1ccccc1-c1ccc(N)c(O)c1 [Example 38, 4-Amino-2′-dimethylaminomethylbiphenyl-3-ol dihydrochloride] | 65% | – | – |
| CN(C)Cc1ccccc1-c1cc(F)cc(F)c1 [Example 39, (3′,5′-Difluorobiphenyl-2-ylmethyl)dimethylamine hydrochloride] | 80% | – | – |
| COc1ccc(OC)c(-c2ccccc2CN(C)C)c1 [Example 40, (2′,5′-Dimethoxybiphenyl-2-ylmethyl)dimethylamine hydrochloride] | 57% | – | – |
| CN(C)Cc1ccccc1-c1cc(OC(F)(F)F)ccc1N [Example 41, 2′-Dimethylaminomethyl-5-trifluoromethoxybiphenyl-2-ylamine dihydrochloride] | 56% | – | – |
| CC(=O)Nc1ccc(OC(F)(F)F)cc1-c1ccccc1CN(C)C [Example 42, N-(2′-Dimethylaminomethyl-5-trifluoromethoxybiphenyl-2-yl)acetamide hydrochloride] | 44% | – | – |
| CN(C)Cc1ccccc1-c1cc(Cl)c(N)c(Cl)c1 [Example 43, 3,5-Dichloro-2′-dimethylaminomethyl-biphenyl-4-ylamine hydrochloride] | 99% | – | – |
